Measurements published in article PMC8901439 (Molecular Cell, 2022).

Tests used:
Assay type in all cases: biochemical
[1] = molecular target: T1, Dnmt1 (Mus musculus, UniProt P13864, N1580A); experiment: single-turnover azidoalkylation kinetics on hemimethylated 25-mer DNA
[2] = molecular target: T2, Dnmt1 (Mus musculus, UniProt P13864, R1576A/N1580A); experiment: as above
[3] = molecular target: Dnmt1 (Mus musculus, UniProt P13864); experiment: single-turnover methylation kinetics on hemimethylated 25-mer DNA
Sequence of Dnmt1 (Mus musculus, UniProt P13864) (P13864 291-1620): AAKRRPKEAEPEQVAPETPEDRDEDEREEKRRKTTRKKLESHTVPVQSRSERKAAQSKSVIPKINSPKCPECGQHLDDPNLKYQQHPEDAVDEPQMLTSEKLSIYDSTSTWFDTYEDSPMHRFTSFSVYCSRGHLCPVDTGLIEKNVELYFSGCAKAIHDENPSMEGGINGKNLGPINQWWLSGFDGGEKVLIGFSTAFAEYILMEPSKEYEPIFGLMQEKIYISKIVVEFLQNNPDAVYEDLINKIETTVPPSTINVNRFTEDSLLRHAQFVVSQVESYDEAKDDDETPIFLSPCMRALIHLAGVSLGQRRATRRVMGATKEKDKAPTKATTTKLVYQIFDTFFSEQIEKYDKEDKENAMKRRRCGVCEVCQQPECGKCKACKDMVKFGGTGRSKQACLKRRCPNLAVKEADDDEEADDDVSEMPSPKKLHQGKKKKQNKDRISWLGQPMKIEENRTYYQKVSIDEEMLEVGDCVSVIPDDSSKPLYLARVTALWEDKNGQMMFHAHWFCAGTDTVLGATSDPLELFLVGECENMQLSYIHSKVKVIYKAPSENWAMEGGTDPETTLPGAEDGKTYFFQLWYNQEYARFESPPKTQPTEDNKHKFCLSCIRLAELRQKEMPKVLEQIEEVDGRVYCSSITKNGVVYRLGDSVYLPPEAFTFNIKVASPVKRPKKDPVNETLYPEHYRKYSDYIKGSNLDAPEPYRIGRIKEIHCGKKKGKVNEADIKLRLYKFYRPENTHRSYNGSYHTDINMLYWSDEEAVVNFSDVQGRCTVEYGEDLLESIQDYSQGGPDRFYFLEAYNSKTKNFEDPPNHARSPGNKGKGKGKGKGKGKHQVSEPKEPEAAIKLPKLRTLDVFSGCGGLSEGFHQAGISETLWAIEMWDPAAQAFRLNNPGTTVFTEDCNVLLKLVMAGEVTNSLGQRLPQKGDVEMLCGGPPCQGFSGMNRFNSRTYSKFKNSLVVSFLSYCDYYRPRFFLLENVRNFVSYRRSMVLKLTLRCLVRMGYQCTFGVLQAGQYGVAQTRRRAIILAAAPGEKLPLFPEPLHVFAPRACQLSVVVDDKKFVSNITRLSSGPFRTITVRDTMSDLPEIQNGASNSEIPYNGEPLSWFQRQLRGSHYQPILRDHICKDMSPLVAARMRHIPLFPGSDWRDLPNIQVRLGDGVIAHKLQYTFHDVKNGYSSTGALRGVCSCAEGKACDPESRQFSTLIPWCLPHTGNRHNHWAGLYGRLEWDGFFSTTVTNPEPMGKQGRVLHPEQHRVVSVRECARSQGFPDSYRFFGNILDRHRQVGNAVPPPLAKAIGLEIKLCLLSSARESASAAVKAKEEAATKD

[4] = molecular target: T1, Dnmt1; experiment: as above
[5] = molecular target: T2, Dnmt1; experiment: as above

T1 sequence (P13864 291-1620 N1580A): as the sequence (P13864 291-1620) above, with N1290A counted along it
T2 sequence (P13864 291-1620 R1576A/N1580A): as the sequence (P13864 291-1620) above, with R1286A, N1290A counted along it

kchem^Ado-6-azide azidoalkylation / min^-1 [1] [min⁻¹]	kchem^Ado-6-azide azidoalkylation / min^-1 [2] [min⁻¹]	kchem^AdoMet methylation / min^-1 [3] [min⁻¹]	kchem^AdoMet methylation / min^-1 [4] [min⁻¹]	kchem^AdoMet methylation / min^-1 [5] [min⁻¹]	SMILES
1.4 ± 0.13	0.27 ± 0.025				[N-]=[N+]=NCCCC#CC[S+](CC[C@H](N)C(=O)O)C[C@H]1O[C@@H](n2cnc3c(N)ncnc32)[C@H](O)[C@@H]1O (mixture of isomers) [Ado-6-azide]
		3.0 ± 0.13	0.104 ± 0.002	0.035 ± 0.002	C[S+](CC[C@H](N)C(=O)[O-])C[C@H]1O[C@@H](n2cnc3c(N)ncnc32)[C@H](O)[C@@H]1O (some centres unmarked) [AdoMet]
